Results from US11053242B2, “[9,10-dimethoxy-3-(2-methylpropyl)-1H,2H,3H,4H,6H,7H,11BH-pyrido-[2,1-a]isoquinolin-2-yl]methanol and compounds, compositions and methods relating thereto” (Neurocrine Biosciences, Inc., priority 2015, dated 2021).

Biological target: VMAT2 (human platelet homogenate) (Homo sapiens (Human), UniProt Q05940)
Assay: Human VMAT2 Ki, slightly modified competition binding procedure (Table 11);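 note: competition binding with 90 min incubation at 25 °C, after which filter-retained radioligand was measured by scintillation counting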
Settings: 10 nM 3H-dihydrotetrabenazine
Description: Following incubation at 25° C. for 90 minutes, bound radioligand was collected by rapid filtration onto GF/B glass fiber filters using a Unifilter-96 Harvester (PerkinElmer). Filter plates were pre-treated with 0.1% polyethylenimine and allowed to dry overnight, and following harvesting the filter plates were washed with 800 d VMAT2 binding buffer. Bound radioligand was quantified by scintillation counting using a Topcount NXT (PerkinElmer).

Sequence of VMAT2 (human platelet homogenate) (Q05940 whole entry): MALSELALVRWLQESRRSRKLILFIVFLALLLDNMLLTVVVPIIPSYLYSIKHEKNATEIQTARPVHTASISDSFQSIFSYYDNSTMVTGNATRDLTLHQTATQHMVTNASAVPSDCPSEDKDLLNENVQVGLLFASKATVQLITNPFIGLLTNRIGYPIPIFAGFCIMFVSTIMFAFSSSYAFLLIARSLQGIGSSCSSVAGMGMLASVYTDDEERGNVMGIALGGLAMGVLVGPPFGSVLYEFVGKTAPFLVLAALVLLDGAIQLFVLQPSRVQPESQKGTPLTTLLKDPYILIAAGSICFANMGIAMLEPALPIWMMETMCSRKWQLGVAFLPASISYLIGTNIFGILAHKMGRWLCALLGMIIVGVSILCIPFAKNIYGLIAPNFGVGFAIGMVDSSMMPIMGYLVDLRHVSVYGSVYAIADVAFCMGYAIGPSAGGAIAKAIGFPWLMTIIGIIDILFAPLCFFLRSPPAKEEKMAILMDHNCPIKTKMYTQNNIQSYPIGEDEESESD

| SMILES | Ki |
| --- | --- |
| COc1cc2c(cc1OC)[C@H]1C[C@@H](COC(=O)CCC(N)=O)[C@H](CC(C)C)CN1CC2 [Compound 2-1, [(2R,3S,11bR)-9,10-dimethoxy-3-(2-methylpropyl)-1H,2H,3H,4H,6H,7H,11bH-pyrido[2,1-a]isoquinolin-2-yl]methyl 3-carbamoylpropanoate] | < 10 nM |
| COc1cc2c(cc1OC)[C@H]1C[C@@H](COC(=O)C3NCCc4ccccc43)[C@H](CC(C)C)CN1CC2 (stereo partly drawn) [Compound 4-21, [(2R,3S,11bR)-9,10-dimethoxy-3-(2-methylpropyl)-1H,2H,3H,4H,6H,7H,11bH-pyrido[2,1-a]isoquinolin-2-yl]methyl 1,2,3,4-tetrahydroisoquinoline-1-carboxylate] | 10 to 500 nM |
| COc1cc2c(cc1OC)[C@H]1C[C@@H](COC(=O)CCC(=O)N(C)C)[C@H](CC(C)C)CN1CC2 [Compound 2-4, [(2R,3S,11bR)-9,10-dimethoxy-3-(2-methylpropyl)-1H,2H,3H,4H,6H,7H,11bH-pyrido[2,1-a]isoquinolin-2-yl]methyl 3-(dimethylcarbamoyl)propanoate] | < 10 nM |
| COc1cc2c(cc1OC)[C@H]1C[C@@H](COC(=O)C3NCc4ccccc43)[C@H](CC(C)C)CN1CC2 (stereo partly drawn) [Compound 4-6, [(2R,3S,11bR)-9,10-dimethoxy-3-(2-methylpropyl)-1H,2H,3H,4H,6H,7H,11bH-pyrido[2,1-a]isoquinolin-2-yl]methyl 2,3-dihydro-1H-isoindole-1-carboxylate] | 10 to 500 nM |
| COc1cc2c(cc1OC)[C@H]1C[C@@H](COC(=O)CC[N+](=O)[O-])[C@H](CC(C)C)CN1CC2 [Compound 2-14, [(2R,3S,11bR)-9,10-dimethoxy-3-(2-methylpropyl)-1H,2H,3H,4H,6H,7H,11bH-pyrido[2,1-a]isoquinolin-2-yl]methyl 3-nitropropanoate] | < 10 nM |
| CCOC[C@@H]1C[C@@H]2c3cc(OC)c(OC)cc3CCN2C[C@H]1CC(C)C [Compound 9-8, (2R,3S,11bR)-2-(ethoxymethyl)-9,10-dimethoxy-3-(2-methylpropyl)-1H,2H,3H,4H,6H,7H,11bH-pyrido[2,1-a]isoquinoline] | < 10 nM |
| COc1cc2c(cc1OC)[C@H]1C[C@@H](COC(=O)C3CCCNC3)[C@H](CC(C)C)CN1CC2 (stereo partly drawn) [Compound 4-20, [(2R,3S,11bR)-9,10-dimethoxy-3-(2-methylpropyl)-1H,2H,3H,4H,6H,7H,11bH-pyrido[2,1-a]isoquinolin-2-yl]methyl piperidine-3-carboxylate] | < 10 nM |
| CCCCCCOCC1CC2c3cc(OC)c(OC)cc3CCN2CC1CC(C)C (stereo not shown) [Compound 10-3, 2-[(hexyloxy)methyl]-9,10-dimethoxy-3-(2-methylpropyl)-1H,2H,3H,4H,6H,7H,11bH-pyrido[2,1-a]isoquinoline] | 10 to 500 nM |
| COc1cc2c(cc1OC)[C@H]1C[C@@H](COC(=O)N3C[C@@H]4C[C@H]3CO4)[C@H](CC(C)C)CN1CC2 [Compound 5-24, [(2R,3S,11bR)-9,10-dimethoxy-3-(2-methylpropyl)-1H,2H,3H,4H,6H,7H,11bH-pyrido[2,1-a]isoquinolin-2-yl]methyl(1S,4S)-2-oxa-5-azabicyclo[2.2.1]heptane-5-carboxylate] | < 10 nM |
| COc1cc2c(cc1OC)[C@H]1C[C@@H](COC(=O)CCN(C)C)[C@H](CC(C)C)CN1CC2 [Compound 2-7, [(2R,3S,11bR)-9,10-dimethoxy-3-(2-methylpropyl)-1H,2H,3H,4H,6H,7H,11bH-pyrido[2,1-a]isoquinolin-2-yl]methyl 3-(dimethylamino)propanoate] | < 10 nM |
| COc1cc2c(cc1OC)[C@H]1CC(COC(=O)[C@@H](N)C(C)C)[C@H](CC(C)C)CN1CC2 (stereo partly drawn) [Compound 4-12, [(3S,11bR)-9,10-dimethoxy-3-(2-methylpropyl)-1H,2H,3H,4H,6H,7H,11bH-pyrido[2,1-a]isoquinolin-2-yl]methyl (2S)-2-amino-3-methylbutanoate] | < 10 nM |
| COc1cc2c(cc1OC)[C@H]1C[C@@H](COC(=O)N3CCN(C)CC3)[C@H](CC(C)C)CN1CC2 [Compound 5-7, [(2R,3S,11bR)-9,10-dimethoxy-3-(2-methylpropyl)-1H,2H,3H,4H,6H,7H,11bH-pyrido[2,1-a]isoquinolin-2-yl]methyl 4-methylpiperazine-1-carboxylate] | > 500 nM |
| COc1cc2c(cc1OC)[C@H]1C[C@@H](COC(=O)N3CCO[C@H](C)C3)[C@H](CC(C)C)CN1CC2 [Compound 5-37, [(2R,3S,11bR)-9,10-dimethoxy-3-(2-methylpropyl)-1H,2H,3H,4H,6H,7H,11bH-pyrido[2,1-a]isoquinolin-2-yl]methyl (2R)-2-methylmorpholine-4-carboxylate] | < 10 nM |
| COc1cc2c(cc1OC)[C@H]1C[C@@H](COC(=O)CC(=O)O)[C@H](CC(C)C)CN1CC2 [Compound 3-2, 3-{[(2R,3S,11bR)-9,10-dimethoxy-3-(2-methylpropyl)-1H,2H,3H,4H,6H,7H,11bH-pyrido[2,1-a]isoquinolin-2-yl]methoxy}-3-oxopropanoic acid] | < 10 nM |
| COc1cc2c(cc1OC)[C@H]1C[C@@H](COC(=O)C3CCCN(S(C)(=O)=O)C3)[C@H](CC(C)C)CN1CC2 (stereo partly drawn) [Compound 2-37, [(2R,3S,11bR)-9,10-dimethoxy-3-(2-methylpropyl)-1H,2H,3H,4H,6H,7H,11bH-pyrido[2,1-a]isoquinolin-2-yl]methyl 1-methanesulfonylpiperidine-3-carboxylate] | 10 to 500 nM |
| COc1cc2c(cc1OC)[C@H]1C[C@@H](COC(=O)N[C@@H]3CCCC[C@H]3C(=O)O)[C@H](CC(C)C)CN1CC2 [Compound 5-35, (1R,2R)-2-[({[(2R,3S,11bR)-9,10-dimethoxy-3-(2-methylpropyl)-1H,2H,3H,4H,6H,7H,11bH-pyrido[2,1-a]isoquinolin-2-yl]methoxy}carbonyl)amino]cyclohexane-1-carboxylic acid] | 10 to 500 nM |
| COc1cc2c(cc1OC)[C@H]1C[C@@H](COC(=O)N3CCN4CCCCCC4C3)[C@H](CC(C)C)CN1CC2 (stereo partly drawn) [Compound 5-48, [(2R,3S,11bR)-9,10-dimethoxy-3-(2-methylpropyl)-1H,2H,3H,4H,6H,7H,11bH-pyrido[2,1-a]isoquinolin-2-yl]methyl decahydropiperazino[1,2-a]azepine-2-carboxylate] | < 10 nM |
| COc1cc2c(cc1OC)[C@H]1C[C@@H](COC(=O)N3CCN[C@H](C#N)C3)[C@H](CC(C)C)CN1CC2 [Compound 6-9, [(2R,3S,11bR)-9,10-dimethoxy-3-(2-methylpropyl)-1H,2H,3H,4H,6H,7H,11bH-pyrido[2,1-a]isoquinolin-2-yl]methyl (3S)-3-cyanopiperazine-1-carboxylate] | < 10 nM |
| COc1cc2c(cc1OC)[C@H]1C[C@@H](COC(=O)C3(C)COC3)[C@H](CC(C)C)CN1CC2 [Compound 2-18, [(2R,3S,11bR)-9,10-dimethoxy-3-(2-methylpropyl)-1H,2H,3H,4H,6H,7H,11bH-pyrido[2,1-a]isoquinolin-2-yl]methyl 3-methyloxetane-3-carboxylate] | < 10 nM |
| COc1cc2c(cc1OC)[C@H]1C[C@@H](COC(=O)c3ccc(CN)cc3)[C@H](CC(C)C)CN1CC2 [Compound 4-18, [(2R,3S,11bR)-9,10-dimethoxy-3-(2-methylpropyl)-1H,2H,3H,4H,6H,7H,11bH-pyrido[2,1-a]isoquinolin-2-yl]methyl 4-(aminomethyl)benzoate] | 10 to 500 nM |
| COc1cc2c(cc1OC)[C@H]1C[C@@H](COC(=O)[C@H]3CCN(Cc4ccccc4)C3)[C@H](CC(C)C)CN1CC2 [Compound 2-26, [(2R,3S,11bR)-9,10-dimethoxy-3-(2-methylpropyl)-1H,2H,3H,4H,6H,7H,11bH-pyrido[2,1-a]isoquinolin-2-yl]methyl (3S)-1-benzylpyrrolidine-3-carboxylate] | < 10 nM |
| COc1cc2c(cc1OC)[C@H]1C[C@@H](COC(=O)[C@@H]3CC(=O)NC(=O)N3)[C@H](CC(C)C)CN1CC2 [Compound 2-31, [(2R,3S,11bR)-9,10-dimethoxy-3-(2-methylpropyl)-1H,2H,3H,4H,6H,7H,11bH-pyrido[2,1-a]isoquinolin-2-yl]methyl (4S)-2,6-dioxo-1,3-diazinane-4-carboxylate] | < 10 nM |
| COc1cc2c(cc1OC)[C@H]1C[C@@H](COC(=O)C3CCCC3N)[C@H](CC(C)C)CN1CC2 (stereo partly drawn) [Compound 4-11, [(2R,3S,11bR)-9,10-dimethoxy-3-(2-methylpropyl)-1H,2H,3H,4H,6H,7H,11bH-pyrido[2,1-a]isoquinolin-2-yl]methyl 2-aminocyclopentane-1-carboxylate] | 10 to 500 nM |
| COc1cc2c(cc1OC)[C@H]1C[C@@H](COC(=O)C(C)(C)O)[C@H](CC(C)C)CN1CC2 [Compound 2-24, [(2R,3S,11bR)-9,10-dimethoxy-3-(2-methylpropyl)-1H,2H,3H,4H,6H,7H,11bH-pyrido[2,1-a]isoquinolin-2-yl]methyl 2-hydroxy-2-methylpropanoate] | 10 to 500 nM |
| COc1cc2c(cc1OC)[C@H]1C[C@@H](COC[C@@H]3CCNC3)[C@H](CC(C)C)CN1CC2 [Compound 10-2, (3R)-3-({[(2R,3S,11bR)-9,10-dimethoxy-3-(2-methylpropyl)-1H,2H,3H,4H,6H,7H,11bH-pyrido[2,1-a]isoquinolin-2-yl]methoxy}methyl)pyrrolidine] | < 10 nM |
| COc1cc2c(cc1OC)[C@H]1C[C@@H](COC(=O)C3CCCN(C)C3)[C@H](CC(C)C)CN1CC2 (stereo partly drawn) [Compound 2-12, [(2R,3S,11bR)-9,10-dimethoxy-3-(2-methylpropyl)-1H,2H,3H,4H,6H,7H,11bH-pyrido[2,1-a]isoquinolin-2-yl]methyl 1-methylpiperidine-3-carboxylate] | < 10 nM |
| COc1cc2c(cc1OC)[C@H]1C[C@@H](COC(=O)CCNS(=O)(=O)C(C)C)[C@H](CC(C)C)CN1CC2 [Compound 2-16, [(2R,3S,11bR)-9,10-dimethoxy-3-(2-methylpropyl)-1H,2H,3H,4H,6H,7H,11bH-pyrido[2,1-a]isoquinolin-2-yl]methyl 3-(propane-2-sulfonamido)propanoate] | < 10 nM |
| COc1cc2c(cc1OC)[C@H]1C[C@@H](COC(=O)C3CCCCC3C(=O)O)[C@H](CC(C)C)CN1CC2 (stereo partly drawn) [Compound 3-5, 2-({[(2R,3S,11bR)-9,10-dimethoxy-3-(2-methylpropyl)-1H,2H,3H,4H,6H,7H,11bH-pyrido[2,1-a]isoquinolin-2-yl]methoxy}carbonyl)cyclohexane-1-carboxylic acid] | 10 to 500 nM |
